Experimental data as given in patent US8106055B2, “Substituted amide compounds” (Gruenenthal GmbH, priority 2007, dated 2012).

target: T1, human μ opiate receptor (Homo sapiens, UniProt P35372); assay: Affinity for the human μ opiate receptor ([3H]-naloxone displacement, CHO-K1 receptor membrane preparation, SPA); assay type: binding; details: test concentration of 1 μM
T1 construct: purchased PerkinElmer Life Sciences, Zaventem, Belgium RB-HOM; host or cells: CHO-K1 cells (membrane preparation)
T1 sequence (P35372 whole entry): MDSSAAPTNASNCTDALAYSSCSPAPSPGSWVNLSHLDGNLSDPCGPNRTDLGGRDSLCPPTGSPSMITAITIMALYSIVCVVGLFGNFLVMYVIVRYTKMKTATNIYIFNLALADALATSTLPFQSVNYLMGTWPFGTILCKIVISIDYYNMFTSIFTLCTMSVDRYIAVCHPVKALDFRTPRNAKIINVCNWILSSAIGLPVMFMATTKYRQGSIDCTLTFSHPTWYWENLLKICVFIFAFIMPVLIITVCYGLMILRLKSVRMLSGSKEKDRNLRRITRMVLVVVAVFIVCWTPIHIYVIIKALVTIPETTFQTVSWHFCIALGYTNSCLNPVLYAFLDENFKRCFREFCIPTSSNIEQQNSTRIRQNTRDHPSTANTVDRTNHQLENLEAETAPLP
Summary of the method: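 At 1 μmol/l, compounds were scored for % displacement of 1 nmol/l [3H]-naloxone from CHO-K1-expressed human μ opiate receptor in a homogeneous SPA format (90 min, room temperature).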

First: COc1cc(C)c(S(=O)(=O)N2CCN(CCOCC(=O)NCC3CCC(C(CCc4ccccc4)N(C)C)CC3)CC2)c(C)c1C (stereo not drawn) [Example 528]
Second: COc1cc(C)c(S(=O)(=O)N2CCC(CCOCC(=O)NCC3CCC(C(CCc4ccccc4)N(C)C)CC3)CC2)c(C)c1C (stereo not drawn) [Example 521]
The “μ (binding on the μ opioid receptor, % inhibition)” value of the first is lower: 34% for the first, 39% for the second.

First: Cc1ccc(S(=O)(=O)N2CCC(OCC(=O)NCC3CCC(C(CCc4ccccc4)N(C)C)CC3)C2)cc1 (stereo not drawn) [Example 538]
Second: CN(C)C(CCc1ccccc1)C1CCC(CNC(=O)COC2CCN(S(=O)(=O)c3ccc(Cl)cc3Cl)C2)CC1 (stereo not drawn) [Example 496]
The “μ (binding on the μ opioid receptor, % inhibition)” value of the first is lower: 25% for the first, 41% for the second.

First: Cc1cc(C)c(S(=O)(=O)N2CCC(OCC(=O)NCCC3CCC(C(c4ccc(F)cc4)N(C)C)CC3)C2)c(C)c1 (stereo not drawn) [Example 501]
Second: Cc1cc(C)c(S(=O)(=O)N2CCC(OCC(=O)NCCC3CCC(C(c4ccc(Cl)cc4)N(C)C)CC3)C2)c(C)c1 (stereo not drawn) [Example 506]
The “μ (binding on the μ opioid receptor, % inhibition)” value of the first is higher: 45% for the first, 42% for the second.

First: COc1cc(C)c(S(=O)(=O)N(CCOCC(=O)NCC2CCC(C(c3ccc(Cl)cc3)N(C)C)CC2)Cc2ccccc2)c(C)c1 (stereo not drawn) [Example 473]
Second: COc1cc(C)c(S(=O)(=O)N(CCOCC(=O)NCC2CCC(C(CCc3ccccc3)N(C)C)CC2)Cc2ccccc2)c(C)c1 (stereo not drawn) [Example 542]
The “μ (binding on the μ opioid receptor, % inhibition)” value of the first is higher: 34% for the first, 33% for the second.

Going from `COc1cc(C)c(S(=O)(=O)N2CCC(OCC(=O)NCC3CCC(C(c4ccc(F)cc4)N(C)C)CC3)CC2)c(C)c1C` (stereo not drawn) [Example 527] to `COc1cc(C)c(S(=O)(=O)N2CCC(OCC(=O)NCC3CCC(C(c4ccc(Cl)cc4)N(C)C)CC3)CC2)c(C)c1C` (stereo not drawn) [Example 498], the “μ (binding on the μ opioid receptor, % inhibition)” value falls from 38% to 36%.

Compared with `COc1ccc(S(=O)(=O)N2CCCCC2CCOCC(=O)NCC2CCC(C(CCc3ccccc3)N(C)C)CC2)cc1` (stereo not drawn) [Example 535], `COc1ccc(S(=O)(=O)N2CCCCC2COCC(=O)NCC2CCC(C(CCc3ccccc3)N(C)C)CC2)cc1` (stereo not drawn) [Example 469] is higher in “μ (binding on the μ opioid receptor, % inhibition)” value: 34% for the first, 50% for the second.

Compared with `COc1ccc(S(=O)(=O)N(C)CCOCC(=O)NCC2CCC(C(c3ccc(F)cc3)N(C)C)CC2)cc1OC` (stereo not drawn) [Example 514], `COc1ccc(S(=O)(=O)N(C)CCOCC(=O)NCC2CCC(C(c3ccc(F)cc3)N(C)C)CC2)cc1` (stereo not drawn) [Example 508] is higher in “μ (binding on the μ opioid receptor, % inhibition)” value: 27% for the first, 31% for the second.

Going from `COc1cc(C)c(S(=O)(=O)N2CCC(CCOCC(=O)NCC3CCC(C(c4ccc(F)cc4)N(C)C)CC3)CC2)c(C)c1C` (stereo not drawn) [Example 481] to `COc1cc(C)c(S(=O)(=O)N2CCC(CCOCC(=O)NCCC3CCC(C(c4ccc(F)cc4)N(C)C)CC3)CC2)c(C)c1C` (stereo not drawn) [Example 510], the “μ (binding on the μ opioid receptor, % inhibition)” value falls from 38% to 33%.

Going from `COc1cc(C)c(S(=O)(=O)N(C)CCOCC(=O)NCC2CCC(C(c3ccc(F)cc3)N(C)C)CC2)c(C)c1` (stereo not drawn) [Example 458] to `Cc1cc(C)c(S(=O)(=O)N(C)CCOCC(=O)NC2CCC(C(c3ccc(F)cc3)N(C)C)CC2)c(C)c1` (stereo not drawn) [Example 490], the “μ (binding on the μ opioid receptor, % inhibition)” value falls from 48% to 42%.

Going from `CN(C)C(c1ccc(F)cc1)C1CCC(CCNC(=O)COC2CCCN(S(=O)(=O)c3ccccc3)C2)CC1` (stereo not drawn) [Example 520] to `CN(C)C(c1ccc(F)cc1)C1CCC(CCNC(=O)COC2CCN(S(=O)(=O)c3ccccc3)C2)CC1` (stereo not drawn) [Example 530], the “μ (binding on the μ opioid receptor, % inhibition)” value falls from 31% to 26%.

Compared with `COc1ccc(S(=O)(=O)N2CCCC2COCC(=O)NC2CCC(C(c3ccc(F)cc3)N(C)C)CC2)cc1` (stereo not drawn) [Example 461], `COc1ccc(S(=O)(=O)N2CCCCC2COCC(=O)NC2CCC(C(c3ccc(F)cc3)N(C)C)CC2)cc1` (stereo not drawn) [Example 450] is higher in “μ (binding on the μ opioid receptor, % inhibition)” value: 43% for the first, 50% for the second.

First: COc1cc(C)c(S(=O)(=O)N2CCC(OCC(=O)NCCC3CCC(C(c4ccc(Cl)cc4)N(C)C)CC3)C2)c(C)c1 (stereo not drawn) [Example 492]
Second: COc1cc(C)c(S(=O)(=O)N2CCC(OCC(=O)NCC3CCC(C(c4ccc(F)cc4)N(C)C)CC3)C2)c(C)c1 (stereo not drawn) [Example 541]
The “μ (binding on the μ opioid receptor, % inhibition)” value of the first is higher: 44% for the first, 34% for the second.

First: CCN(CCOCC(=O)NCC1CCC(C(CCc2ccccc2)N(C)C)CC1)S(=O)(=O)c1c(C)cc(OC)c(C)c1C (stereo not drawn) [Example 536]
Second: COc1cc(C)c(S(=O)(=O)N(C)CCOCC(=O)NCC2CCC(C(CCc3ccccc3)N(C)C)CC2)c(C)c1 (stereo not drawn) [Example 525]
The “μ (binding on the μ opioid receptor, % inhibition)” value of the first is higher: 43% for the first, 31% for the second.

Compared with `COc1cc(C)c(S(=O)(=O)N2CCC(OCC(=O)NC3CCC(C(c4ccc(F)cc4)N(C)C)CC3)CC2)c(C)c1C` (stereo not drawn) [Example 454], `COc1cc(C)c(S(=O)(=O)N(CCOCC(=O)NC2CCC(C(c3ccc(F)cc3)N(C)C)CC2)Cc2ccccc2)c(C)c1C` (stereo not drawn) [Example 523] is lower in “μ (binding on the μ opioid receptor, % inhibition)” value: 48% for the first, 34% for the second.

Going from `CN(C)C(c1ccc(Cl)cc1)C1CCC(CNC(=O)COCCN(C)S(=O)(=O)c2ccc(Cl)cc2Cl)CC1` (stereo not drawn) [Example 459] to `CN(C)C(CCc1ccccc1)C1CCC(CNC(=O)COCCN(C)S(=O)(=O)c2ccc(Cl)cc2Cl)CC1` (stereo not drawn) [Example 513], the “μ (binding on the μ opioid receptor, % inhibition)” value rises from 36% to 38%.

First: CN(C)C(c1ccc(F)cc1)C1CCC(CCNC(=O)COC2CCN(S(=O)(=O)c3ccc(F)cc3)C2)CC1 (stereo not drawn) [Example 518]
Second: Cc1ccc(S(=O)(=O)N2CCC(OCC(=O)NCCC3CCC(C(c4ccc(F)cc4)N(C)C)CC3)C2)cc1 (stereo not drawn) [Example 491]
The “μ (binding on the μ opioid receptor, % inhibition)” value of the first is higher: 35% for the first, 34% for the second.

First: CN(C)C(c1ccc(F)cc1)C1CCC(NC(=O)COCC2CCCN(S(=O)(=O)c3ccccc3)C2)CC1 (stereo not drawn) [Example 478]
Second: CN(C)C(c1ccc(F)cc1)C1CCC(CCNC(=O)COCC2CCCN(S(=O)(=O)c3ccccc3)C2)CC1 (stereo not drawn) [Example 479]
The “μ (binding on the μ opioid receptor, % inhibition)” value of the first is lower: 40% for the first, 42% for the second.

First: CN(C)C(c1ccc(F)cc1)C1CCC(CCNC(=O)COC2CCN(S(=O)(=O)c3cccc(C(F)(F)F)c3)C2)CC1 (stereo not drawn) [Example 466]
Second: CN(C)C(c1ccc(F)cc1)C1CCC(CCNC(=O)COC2CCN(S(=O)(=O)c3ccc(Cl)cc3)C2)CC1 (stereo not drawn) [Example 464]
The “μ (binding on the μ opioid receptor, % inhibition)” value of the first is lower: 30% for the first, 46% for the second.

Going from `CN(C)C(c1ccc(F)cc1)C1CCC(CCNC(=O)COCCC2CCN(S(=O)(=O)c3ccccc3)CC2)CC1` (stereo not drawn) [Example 470] to `CN(C)C(c1ccc(F)cc1)C1CCC(CCNC(=O)COCCN2CCN(S(=O)(=O)c3ccccc3)CC2)CC1` (stereo not drawn) [Example 493], the “μ (binding on the μ opioid receptor, % inhibition)” value falls from 35% to 34%.

Going from `CN(C)C(c1ccc(F)cc1)C1CCC(CNC(=O)COC2CCN(S(=O)(=O)c3ccc(Cl)cc3)C2)CC1` (stereo not drawn) [Example 517] to `CN(C)C(c1ccc(F)cc1)C1CCC(CNC(=O)COC2CCN(S(=O)(=O)c3ccccc3)C2)CC1` (stereo not drawn) [Example 532], the “μ (binding on the μ opioid receptor, % inhibition)” value falls from 40% to 35%.

Compared with `COc1ccc(S(=O)(=O)N2CCCC2COCC(=O)NCC2CCC(C(c3ccc(F)cc3)N(C)C)CC2)cc1` (stereo not drawn) [Example 511], `COc1ccc(S(=O)(=O)N2CCCCC2COCC(=O)NCCC2CCC(C(c3ccc(F)cc3)N(C)C)CC2)c(OC)c1` (stereo not drawn) [Example 500] is higher in “μ (binding on the μ opioid receptor, % inhibition)” value: 39% for the first, 43% for the second.

First: CN(C)C(c1ccc(F)cc1)C1CCC(NC(=O)COC2CCN(S(=O)(=O)c3ccccc3)C2)CC1 (stereo not drawn) [Example 463]
Second: CN(C)C(c1ccc(F)cc1)C1CCC(CNC(=O)COC2CCCN(S(=O)(=O)c3ccccc3)C2)CC1 (stereo not drawn) [Example 488]
The “μ (binding on the μ opioid receptor, % inhibition)” value of the first is lower: 38% for the first, 40% for the second.

Compared with `CN(C)C(c1ccc(F)cc1)C1CCC(CCNC(=O)COCCN(C)S(=O)(=O)c2ccc(F)cc2)CC1` (stereo not drawn) [Example 487], `COc1ccc(S(=O)(=O)N(C)CCOCC(=O)NCCC2CCC(C(c3ccc(F)cc3)N(C)C)CC2)cc1` (stereo not drawn) [Example 519] is higher in “μ (binding on the μ opioid receptor, % inhibition)” value: 37% for the first, 39% for the second.

Compared with `CN(C)C(c1ccc(F)cc1)C1CCC(NC(=O)COCCN2CCN(S(=O)(=O)c3ccccc3)CC2)CC1` (stereo not drawn) [Example 502], `CN(C)C(CCc1ccccc1)C1CCC(CNC(=O)COCCN2CCN(S(=O)(=O)c3ccccc3)CC2)CC1` (stereo not drawn) [Example 526] is lower in “μ (binding on the μ opioid receptor, % inhibition)” value: 33% for the first, 32% for the second.

Going from `CN(C)C(c1ccc(F)cc1)C1CCC(CCNC(=O)COC2CCN(S(=O)(=O)c3ccc(Cl)cc3Cl)C2)CC1` (stereo not drawn) [Example 456] to `COc1ccc(S(=O)(=O)N2CCC(OCC(=O)NCC3CCC(C(c4ccc(F)cc4)N(C)C)CC3)C2)cc1OC` (stereo not drawn) [Example 497], the “μ (binding on the μ opioid receptor, % inhibition)” value falls from 50% to 37%.

Compared with `COc1ccc(S(=O)(=O)N2CCCCC2COCC(=O)NCCC2CCC(C(c3ccc(Cl)cc3)N(C)C)CC2)c(OC)c1` (stereo not drawn) [Example 474], `COc1ccc(S(=O)(=O)N2CCCCC2COCC(=O)NCCC2CCC(C(c3ccc(Cl)cc3)N(C)C)CC2)cc1OC` (stereo not drawn) [Example 540] is lower in “μ (binding on the μ opioid receptor, % inhibition)” value: 46% for the first, 23% for the second.

Compared with `Cc1cc(C)c(S(=O)(=O)N2CCC(OCC(=O)NCC3CCC(C(CCc4ccccc4)N(C)C)CC3)C2)c(C)c1` (stereo not drawn) [Example 475], `CN(C)C(CCc1ccccc1)C1CCC(CNC(=O)COCCN(C)S(=O)(=O)c2ccc(F)cc2)CC1` (stereo not drawn) [Example 539] is lower in “μ (binding on the μ opioid receptor, % inhibition)” value: 48% for the first, 32% for the second.

Compared with `COc1ccc(S(=O)(=O)N(C)CCOCC(=O)NCCC2CCC(C(c3ccc(Cl)cc3)N(C)C)CC2)cc1` (stereo not drawn) [Example 460], `CN(C)C(c1ccccc1)C1CCC(CNC(=O)COCCC2CCN(S(=O)(=O)c3ccccc3)CC2)CC1` (stereo not drawn) [Example 507] is lower in “μ (binding on the μ opioid receptor, % inhibition)” value: 52% for the first, 32% for the second.

With `COc1ccc(S(=O)(=O)N2CCCCC2COCC(=O)NC2CCC(C(c3ccc(F)cc3)N(C)C)CC2)c(OC)c1` (stereo not drawn) [Example 524] the “μ (binding on the μ opioid receptor, % inhibition)” value was 33%.
